Source: patent publication US11382900B2, “Composition for preventing or treating sleep disorders” (AMOREPACIFIC CORPORATION, priority 2017, dated 2022)
Read-outs that look alike come from different tables or passages of the source.

Tests used:
[1] = Change in body temperature after oral administration (nonclinical); format: in vivo, Balb/c mice; conditions: for change in body temperature, dose dependence: up to 4 hours, AMG 517 0.03, 0.1, 0.3 mg/kg, compound of Formula 1 3, 10, 30 mg/kg
Excerpt: Meanwhile, when the same drug was orally administered, a concentration-dependent increase in body temperature due to TRPV1 antagonism was observed as expected (see FIGS. 2A and 2B).

[2] = rats, oral dose of 3 mg/kg; cited from earlier work
[3] = set-up: species or system C57BL/6 mice; conditions: in vivo; for increase in body temperature: C57BL/6, mouse, 2 h; for concentration dependence of body temperature increase: mouse
Description: As described above, AMG 517, a representative reference drug as a TRPV1 antagonist, and the compound of Formula 1 of the present invention were tested for the increase in body temperature during transdermal administration.

[4] = oral administration for treatment of dental pain; cited from earlier work
[5] = target: T1, TRPV1 (Rattus norvegicus, UniProt O35433); conditions: rats; cited from earlier work
T1 construct: host or cells: living rats (endogenous protein)
T1 sequence (O35433 whole entry): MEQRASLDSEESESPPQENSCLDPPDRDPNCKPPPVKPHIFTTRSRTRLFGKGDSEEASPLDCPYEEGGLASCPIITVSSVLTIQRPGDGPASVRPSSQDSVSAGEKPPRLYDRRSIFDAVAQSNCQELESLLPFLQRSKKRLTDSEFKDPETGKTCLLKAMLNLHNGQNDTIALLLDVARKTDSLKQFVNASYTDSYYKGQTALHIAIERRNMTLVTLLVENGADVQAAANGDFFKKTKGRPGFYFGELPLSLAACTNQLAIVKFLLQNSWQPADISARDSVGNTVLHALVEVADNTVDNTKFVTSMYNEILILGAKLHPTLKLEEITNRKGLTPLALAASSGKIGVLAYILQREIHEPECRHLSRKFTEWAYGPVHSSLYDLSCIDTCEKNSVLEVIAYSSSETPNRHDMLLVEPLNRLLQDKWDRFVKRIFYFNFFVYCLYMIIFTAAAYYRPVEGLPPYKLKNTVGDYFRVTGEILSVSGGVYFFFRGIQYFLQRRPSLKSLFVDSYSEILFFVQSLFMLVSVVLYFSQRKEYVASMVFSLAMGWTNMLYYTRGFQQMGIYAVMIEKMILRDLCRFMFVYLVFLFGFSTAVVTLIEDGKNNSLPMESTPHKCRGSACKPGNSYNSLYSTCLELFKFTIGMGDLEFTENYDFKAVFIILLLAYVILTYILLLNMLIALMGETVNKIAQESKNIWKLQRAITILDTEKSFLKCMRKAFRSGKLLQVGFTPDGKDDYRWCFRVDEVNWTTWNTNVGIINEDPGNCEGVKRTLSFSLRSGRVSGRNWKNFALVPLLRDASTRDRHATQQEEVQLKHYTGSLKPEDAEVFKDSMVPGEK

Compound	change in body temperature at lowest dose ([1]; 0.03 mg/kg)	change in body temperature, dose dependence [1]	increase in body temperature [2]	increase in body temperature [3]	concentration dependence of body temperature increase [3]	body temperature raised in human [4]	hyperthermia side effect [4]	effective concentration to maximize analgesic efficacy [5]
CC(=O)Nc1nc2c(Oc3cc(-c4ccc(C(F)(F)F)cc4)ncn3)cccc2s1 [AMG 517]	significantly increased body temperature	increased body temperature in a dose—dependent manner	about 1.3 °C	~1.59 °C	significant concentration-dependent increase in body temperature	up to 40 °C	concentration-dependent side effect of hyperthermia	less than 0.3 mg/kg
CCCc1nc(C(F)(F)F)ccc1/C=C/C(=O)N[C@H](C)c1cc(F)c(NS(C)(=O)=O)c(F)c1 [compound of Formula 1]		increased body temperature in a dose—dependent manner		~0.84 °C	no concentration dependence was observed			
